Data from patent US6596755B2 (Dabur Research Foundation, priority 2001, dated 2003).

Legend:
[1] = test system: U87MG Glioblastoma; assay: three day MTT cytotoxicity assay, U87MG; type: cell-based, human; details: Standard (DMSO control), 72 hours
Method: (§1) Briefly, a three day MTT cytotoxicity assay was performed, which is based on the principle of uptake of MTT (3-(4,5-dimethylthiazol-2-yl)-2,5-diphenyl tetrazolium bromide), a tetrazolium salt, by the metabolically active cells where it is metabolized by active mitochondria into a blue colored formazan product that is read spectrophoto-metrically. MTT was dissolved in phosphate buffered saline with a pH of 7.4 to obtain an MTT concentration of 5 mg/ml; the resulting mixture was filtered through a 0.22 micron filter to sterilize and remove a small amount of insoluble residue. For each type of tumor cell, 20,000 to 50,000 cells were seeded in a 96-well culture plate and incubated with the formulation or standard in a CO2 incubator for […]. […] The assay was terminated after 72 hours by adding 100 ug (20 ul) of MTT to each well, then incubating for additional one hour, and finally adding 50 ul of 10% SDS-0.01N HCl to each well to lyse the cells and dissolve formazan. After incubating for one hour, the plate was read spectrophoto-metrically at 540 nm and the percentage cytotoxicity calculated.

[2] = test system: KB Oral; assay: three day MTT cytotoxicity assay, KB; type: cell-based, human; details: Standard (DMSO control), 72 hours
Method: as §1

[3] = test system: PTC Colon; assay: three day MTT cytotoxicity assay, PTC; type: cell-based, human; details: Standard (DMSO control), 72 hours
Method: as §1

[4] = test system: DU145 Prostate; assay: three day MTT cytotoxicity assay, DU145; type: cell-based, human; details: Standard (DMSO control), 72 hours
Method: as §1

[5] = test system: Miapaca2 Pancreas; assay: three day MTT cytotoxicity assay, Miapaca2; type: cell-based, human; details: Standard (DMSO control), 72 hours
Method: as §1

[6] = test system: L132 Lung; assay: three day MTT cytotoxicity assay, L132; type: cell-based, human; details: Standard (DMSO control), 72 hours
Method: as §1

[7] = test system: Molt 4 Leukemia; assay: three day MTT cytotoxicity assay, Molt 4; type: cell-based, human; details: Standard (DMSO control), 72 hours
Method: as §1

[8] = test system: sarcoma 180 cells; details: injected into mice along with sarcoma 180 cells; cited from earlier work
[9] = test system: sarcoma tumor; details: in vivo; cited from earlier work

COC(=O)C1CCC(=O)N1C(O)C(C)=O (centres unmarked) [MGC1]
ED50 of cytotoxicity [1]: 2.25 ± 0.5 mM
ED50 of cytotoxicity [2]: 1.7 ± 0.5 mM
ED50 of cytotoxicity [3]: 3.7 ± 1.4 mM
ED50 of cytotoxicity [4]: 1.7 ± 0.6 mM
ED50 of cytotoxicity [5]: 4.2 ± 1.3 mM
ED50 of cytotoxicity [6]: >5 mM
ED50 of cytotoxicity [7]: 1.5 ± 0.4 mM

CCOC(=O)C1CCC(=O)N1C(O)C(C)=O (centres unmarked) [MGC4]
ED50 of cytotoxicity [1]: 2.4 ± 0.5 mM
ED50 of cytotoxicity [2]: 1.55 ± 0.3 mM
ED50 of cytotoxicity [3]: 3.8 ± 1.1 mM
ED50 of cytotoxicity [4]: 1.8 ± 0.3 mM
ED50 of cytotoxicity [5]: 4.2 ± 1.1 mM
ED50 of cytotoxicity [6]: >5 mM
ED50 of cytotoxicity [7]: 1.5 ± 0.2 mM

CC(=O)C=O [Methylglyoxal, 2-oxopropanal]
tumor development [8]: no tumor developed
sarcoma tumor growth [9]: significantly inhibited

CC(=O)OC(C(C)=O)N1C(=O)CCC1C(=O)OCc1ccccc1 (centres unmarked) [MGC7]
ED50 of cytotoxicity [1]: 1.84 ± 0.6 mM
ED50 of cytotoxicity [2]: 1.85 ± 0.6 mM
ED50 of cytotoxicity [3]: 2.4 ± 0.5 mM
ED50 of cytotoxicity [4]: 0.85 ± 0.3 mM
ED50 of cytotoxicity [5]: 2.4 ± 1.0 mM
ED50 of cytotoxicity [6]: >5 mM
ED50 of cytotoxicity [7]: 1.5 ± 0.2 mM
